1 compound from patent US20180311238A1, “Selective Agonist Of a6 Containing nAChRs” (Saniona A/S, priority 2017, published 2018) can be followed below.

Assay [1] concerns the target T1, human α3β4 nicotinic receptors (Homo sapiens, UniProt P30926+P32297).
T1 construct: expressed in transfected cells
The assay can be described thus: FLIPR fluorescence-based calcium assay, α3β4. The class given is cell-based. To be noted: FLIPR calcium response relative to nicotine. The protocol:
(§1) The level of agonist activity of 9-methyl-3-pyridin-3-yl-3,9-diaza-bicyclo[3.3.1]nonane was tested in functional fluorescence-based calcium assays using TE671 cells and HEK293 cells stably expressing human α6/α3β2β3^V273S, α3β4 and α4β2 nicotinic receptors.
(§2) Cells were plated on poly-D-lysine coated 384-well microtiter plates and were allowed to proliferate for 24 h. Dye loading was performed by incubating cells with 2 μM fluo-4/AM for 1.5 h at room temperature. Dye not taken up by cells was removed by aspiration followed by three washing cycles with 25 μl of NMDG Ringer buffer (in mM: 140 NMDG, 5 KCl, 1 MgCl2, 10 CaCl2, 10 HEPES, pH 7.4) after which the cells were kept in 25 μl of the same buffer. The microtiter plates were placed in a Fluoremetric Imaging Plate Reader (FLIPR) and subjected to test compound at various concentrations. Background subtracted compound-mediated calcium responses were normalized to 100 μM nicotine control responses and pEC50 as well as relative maximal efficacy values were determined.

Assay [2] addresses T2, human α4β2 nicotinic receptors (Homo sapiens, UniProt P17787+P43681).
T2 construct: expressed in transfected cells
The experiment in a line: FLIPR fluorescence-based calcium assay, α4β2. The class given is cell-based. Particulars: FLIPR calcium response relative to nicotine. The protocol:
as §1, §2

Assay [3] deals with T3, α7 (Homo sapiens, UniProt P36544).
T3 construct: expressed in transfected cells; host or cells: Xenopus laevis oocytes injected with cRNA
The experiment in a line: Oocyte two-electrode voltage-clamp electrophysiology, α7. It is filed as cell-based. To be noted: Xenopus laevis oocytes, peak currents. Here is the method: Two-electrode voltage-clamp electrophysiology recordings were done in Xenopus laevis oocytes injected with approximately 25 ng cRNA. After injection, oocytes were incubated at 17° C. for 2-3 days. During measurements, an oocyte was placed in a custom designed recording chamber where compound solutions are added directly to the oocyte via a glass capillary. Compound solutions were prepared on the day of measurement and applied to oocytes with a flowrate of 2.0 ml/min. All datasets were baseline subtracted and responses to individual applications were read as peak current amplitudes. Concentration response relationships describing compound effect at a fixed acetylcholine concentration were fitted to a monophasic Hill-equation. Potency (EC50) and efficacy values (fitted maximal current relative to maximal current of acetylcholine).

Assay [4] addresses α7 (Rattus norvegicus, UniProt Q05941). The assay can be described thus: biochemical. It is filed as binding.
For a further assay, the system named is nicotinic receptors. The experiment in a line: 3H-epibatidin displacement studies in rats. The class given is in vivo.

T3 sequence (P36544 23-502): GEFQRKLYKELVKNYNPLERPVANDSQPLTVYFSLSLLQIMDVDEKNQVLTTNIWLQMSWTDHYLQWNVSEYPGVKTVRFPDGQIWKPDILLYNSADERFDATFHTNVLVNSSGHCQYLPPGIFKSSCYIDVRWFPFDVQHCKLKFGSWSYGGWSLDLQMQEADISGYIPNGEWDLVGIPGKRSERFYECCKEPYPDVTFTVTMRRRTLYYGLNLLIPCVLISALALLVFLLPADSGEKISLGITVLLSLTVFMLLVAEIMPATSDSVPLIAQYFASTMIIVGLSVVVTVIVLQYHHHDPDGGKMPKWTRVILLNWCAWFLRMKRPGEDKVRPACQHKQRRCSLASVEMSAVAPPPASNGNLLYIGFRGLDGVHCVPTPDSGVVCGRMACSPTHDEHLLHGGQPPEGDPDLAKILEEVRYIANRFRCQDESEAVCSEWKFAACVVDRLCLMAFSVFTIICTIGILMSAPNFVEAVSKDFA
T2 sequence (P43681 29-627 limits assumed): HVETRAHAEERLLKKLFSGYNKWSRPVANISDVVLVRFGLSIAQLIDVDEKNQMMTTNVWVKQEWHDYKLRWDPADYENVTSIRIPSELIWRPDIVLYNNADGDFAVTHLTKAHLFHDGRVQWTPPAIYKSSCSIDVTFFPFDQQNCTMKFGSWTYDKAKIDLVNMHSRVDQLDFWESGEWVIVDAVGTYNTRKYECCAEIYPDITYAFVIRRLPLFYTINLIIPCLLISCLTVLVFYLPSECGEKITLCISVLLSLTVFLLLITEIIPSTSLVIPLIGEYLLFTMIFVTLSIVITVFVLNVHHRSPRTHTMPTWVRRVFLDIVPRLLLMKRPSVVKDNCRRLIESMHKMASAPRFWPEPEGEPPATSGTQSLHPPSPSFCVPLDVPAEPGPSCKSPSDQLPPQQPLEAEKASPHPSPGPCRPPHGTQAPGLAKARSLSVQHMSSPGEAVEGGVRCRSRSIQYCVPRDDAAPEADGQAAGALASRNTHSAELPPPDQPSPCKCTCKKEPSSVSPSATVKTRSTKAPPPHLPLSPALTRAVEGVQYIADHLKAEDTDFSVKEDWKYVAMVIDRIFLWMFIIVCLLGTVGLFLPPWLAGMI
T2 sequence (P17787 26-502): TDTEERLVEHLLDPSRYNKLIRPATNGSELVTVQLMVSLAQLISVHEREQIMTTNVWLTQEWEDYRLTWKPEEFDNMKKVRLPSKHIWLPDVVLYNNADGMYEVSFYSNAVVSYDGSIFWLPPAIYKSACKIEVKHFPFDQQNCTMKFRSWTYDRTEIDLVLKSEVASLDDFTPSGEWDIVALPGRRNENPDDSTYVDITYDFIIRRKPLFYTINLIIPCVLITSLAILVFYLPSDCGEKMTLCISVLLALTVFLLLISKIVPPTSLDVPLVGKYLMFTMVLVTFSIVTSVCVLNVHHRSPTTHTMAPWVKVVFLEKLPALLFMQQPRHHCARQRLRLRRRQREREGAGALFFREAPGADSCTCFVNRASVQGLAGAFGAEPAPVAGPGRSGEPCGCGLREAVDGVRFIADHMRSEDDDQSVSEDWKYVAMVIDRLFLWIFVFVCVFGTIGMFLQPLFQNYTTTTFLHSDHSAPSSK
Sequence of α7 (Rattus norvegicus, UniProt Q05941) (Q05941 23-502): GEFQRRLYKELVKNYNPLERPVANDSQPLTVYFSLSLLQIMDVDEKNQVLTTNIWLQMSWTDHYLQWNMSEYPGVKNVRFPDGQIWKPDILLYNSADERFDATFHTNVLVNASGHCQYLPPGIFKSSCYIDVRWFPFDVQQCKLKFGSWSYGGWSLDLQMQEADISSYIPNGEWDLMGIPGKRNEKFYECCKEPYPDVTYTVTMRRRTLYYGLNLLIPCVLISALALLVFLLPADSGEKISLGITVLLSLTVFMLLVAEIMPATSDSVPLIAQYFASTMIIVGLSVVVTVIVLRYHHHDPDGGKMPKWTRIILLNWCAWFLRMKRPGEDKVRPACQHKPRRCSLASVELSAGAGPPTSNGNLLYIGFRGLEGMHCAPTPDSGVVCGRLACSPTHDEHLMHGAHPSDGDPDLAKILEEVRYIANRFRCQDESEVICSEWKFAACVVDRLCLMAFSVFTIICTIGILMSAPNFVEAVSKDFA
T1 sequence (P32297 32-505): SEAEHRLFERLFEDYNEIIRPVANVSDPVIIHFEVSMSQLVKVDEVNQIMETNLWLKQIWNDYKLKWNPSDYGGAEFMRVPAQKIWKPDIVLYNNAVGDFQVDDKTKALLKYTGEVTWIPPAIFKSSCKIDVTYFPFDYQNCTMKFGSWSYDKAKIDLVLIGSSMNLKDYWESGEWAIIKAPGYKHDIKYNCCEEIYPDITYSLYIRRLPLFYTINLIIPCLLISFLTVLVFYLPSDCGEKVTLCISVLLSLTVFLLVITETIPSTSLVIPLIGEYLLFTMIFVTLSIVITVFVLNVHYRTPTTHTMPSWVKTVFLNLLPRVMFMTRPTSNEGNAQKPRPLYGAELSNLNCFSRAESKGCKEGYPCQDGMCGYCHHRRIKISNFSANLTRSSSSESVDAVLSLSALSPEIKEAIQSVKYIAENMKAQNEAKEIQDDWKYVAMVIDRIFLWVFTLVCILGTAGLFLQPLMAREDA
T1 sequence (P30926 22-498): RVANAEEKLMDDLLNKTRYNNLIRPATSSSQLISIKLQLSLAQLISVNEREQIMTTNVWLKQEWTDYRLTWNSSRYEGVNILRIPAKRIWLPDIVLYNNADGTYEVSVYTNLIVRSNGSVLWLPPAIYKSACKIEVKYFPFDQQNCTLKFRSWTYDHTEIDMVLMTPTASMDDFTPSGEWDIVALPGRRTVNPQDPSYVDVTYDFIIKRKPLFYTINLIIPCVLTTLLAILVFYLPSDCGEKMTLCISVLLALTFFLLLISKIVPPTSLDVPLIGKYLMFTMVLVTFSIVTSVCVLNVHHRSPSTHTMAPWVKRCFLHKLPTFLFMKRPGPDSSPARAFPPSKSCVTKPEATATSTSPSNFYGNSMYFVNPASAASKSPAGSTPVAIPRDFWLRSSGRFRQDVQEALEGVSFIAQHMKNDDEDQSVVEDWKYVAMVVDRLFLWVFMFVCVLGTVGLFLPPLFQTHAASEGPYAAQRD

For the compound `CN1C2CCCC1CN(c1cccnc1)C2` [9-methyl-3-pyridin-3-yl-3,9-diaza-bicyclo[3.3.1]nonane], the efficacy result in assay [1] and in assay [2] was “practically no efficacy” each time. Moreover, the midpoint of the response on α7 [3], the EC50, lay at 13 µM. On α7 [4], this compound came in with a Ki of 0.29 µM. For the same compound, the “dose giving half maximal displacement of specific binding of 3H-epibatidin” value with nicotinic receptors came out at 0.15 mg/kg.

A word on the EC50: it is the concentration giving half of the maximal effect. The term Ki denotes the equilibrium dissociation constant of an inhibitor or competing ligand from its target. Low readings indicate tighter binding, high ones weaker binding.
